From patent publication US7414071B2, “Methods of treatment with selective EP4 receptor agonists” (Pfizer Inc., priority 2002, dated 2008)

System: New Zealand White male rabbits
Test: In vivo anesthetized rabbit model (hypotensive effect: mean arterial pressure and heart rate)
Description: Methods: New Zealand White male rabbits (3-4 kg) are anesthetized with sodium pentobarbital (30 mg/kg, i.v.) and a surgical plane of anesthesia is maintained by a continuous infusion of sodium pentobarbital (16 mg/kg/hr) via an ear vein catheter. A tracheotomy is performed through a ventral midline cervical incision and the rabbits are ventilated with 100% oxygen using a positive pressure ventilator. Body temperature is maintained at 38.5° C. using a heating pad connected to a YSI temperature controller model 72 (Yellow Springs Instruments, Yellow Springs, […].). Fluid-filled catheters are placed in the right jugular vein (for intravenous drug administration) and in the right carotid artery for arterial pressure monitoring and for blood gas analysis using a model 248 blood gas analyzer (Bayer Diagnostics, Norwood, Mass.). The ventilator is adjusted as needed to maintain blood pH and pCO2 within normal physiological ranges for rabbits. […] Blood is sampled after dosing or during the infusion of the test compound to determine plasma concentrations of the test compounds.
Thus, dosing volumes were 0.2 ml/kg (Group A) subcutaneously or 5 ml/h (Groups B, C, and D) as an intravenous (IV) infusion. The term “mgA” means the number of milligrams adjusted for active compound (e.g. corrected for salt etc.).
Dosing: Four groups (Groups A, B, C, and D) of two rabbits each were dosed as follows.

[1] = Group B, 167 μg/kg/h IV infusion
[2] = Group C, 16.7 μg/kg/h IV infusion

O=C([O-])c1ccc(CCCN2C(=O)CC[C@@H]2CC[C@@H](O)Cc2cccc(C(F)(F)F)c2)s1.[Na+] [Compound 3M sodium salt]
duration of hemodynamic effect (Group A, 1 mgA/kg SC): sustained over the entire 4 hour post-dose interval | effect on heart rate (Group A, 1 mgA/kg SC): increase in heart rate | effect on mean arterial pressure (Group A, 1 mgA/kg SC): decrease in mean arterial pressure | onset of hemodynamic effect (Group A, 1 mgA/kg SC): < 2 min | mean arterial pressure (MAP) (Group A, 1 mgA/kg SC bolus, 5 min post-dose, mean of 2, baseline 92): 69 mm Hg | heart rate (HR) (Group A, 1 mgA/kg SC bolus, 5 min post-dose, mean of 2, baseline 243): 268 beats/minute | mean arterial pressure (MAP) (Group A, 1 mgA/kg SC bolus, 10 min post-dose, mean of 2, baseline 92): 59 mm Hg | heart rate (HR) (Group A, 1 mgA/kg SC bolus, 10 min post-dose, mean of 2, baseline 243): 283 beats/minute | mean arterial pressure (MAP) (Group A, 1 mgA/kg SC bolus, 15 min post-dose, mean of 2, baseline 92): 60 mm Hg | heart rate (HR) (Group A, 1 mgA/kg SC bolus, 15 min post-dose, mean of 2, baseline 243): 285 beats/minute | mean arterial pressure (MAP) (Group A, 1 mgA/kg SC bolus, 30 min post-dose, mean of 2, baseline 92): 59 mm Hg | heart rate (HR) (Group A, 1 mgA/kg SC bolus, 30 min post-dose, mean of 2, baseline 243): 284 beats/minute | mean arterial pressure (MAP) (Group A, 1 mgA/kg SC bolus, 60 min post-dose, mean of 2, baseline 92): 59 mm Hg | heart rate (HR) (Group A, 1 mgA/kg SC bolus, 60 min post-dose, mean of 2, baseline 243): 288 beats/minute | mean arterial pressure (MAP) (Group A, 1 mgA/kg SC bolus, 90 min post-dose, mean of 2, baseline 92): 59 mm Hg | heart rate (HR) (Group A, 1 mgA/kg SC bolus, 90 min post-dose, mean of 2, baseline 243): 284 beats/minute | mean arterial pressure (MAP) (Group A, 1 mgA/kg SC bolus, 120 min post-dose, mean of 2, baseline 92): 58 mm Hg | heart rate (HR) (Group A, 1 mgA/kg SC bolus, 120 min post-dose, mean of 2, baseline 243): 278 beats/minute | mean arterial pressure (MAP) (Group A, 1 mgA/kg SC bolus, 150 min post-dose, mean of 2, baseline 92): 57 mm Hg | heart rate (HR) (Group A, 1 mgA/kg SC bolus, 150 min post-dose, mean of 2, baseline 243): 275 beats/minute | mean arterial pressure (MAP) (Group A, 1 mgA/kg SC bolus, 180 min post-dose, mean of 2, baseline 92): 60 mm Hg | heart rate (HR) (Group A, 1 mgA/kg SC bolus, 180 min post-dose, mean of 2, baseline 243): 273 beats/minute | mean arterial pressure (MAP) (Group A, 1 mgA/kg SC bolus, 210 min post-dose, mean of 2, baseline 92): 61 mm Hg | heart rate (HR) (Group A, 1 mgA/kg SC bolus, 210 min post-dose, mean of 2, baseline 243): 273 beats/minute | mean arterial pressure (MAP) (Group A, 1 mgA/kg SC bolus, 240 min post-dose, mean of 2, baseline 92): 65 mm Hg | heart rate (HR) (Group A, 1 mgA/kg SC bolus, 240 min post-dose, mean of 2, baseline 243): 273 beats/minute | duration of hemodynamic effect [1]: sustained over the entire 4 hour post-dose interval | effect on heart rate [1]: increase in heart rate | effect on mean arterial pressure [1]: decrease in mean arterial pressure | onset of hemodynamic effect [1]: < 2 min | mean arterial pressure (MAP) (Group B, 167 μg/kg/hr IV infusion for 4 hours, 5 min, mean of 2, baseline 87): 67 mm Hg | heart rate (HR) (Group B, 167 μg/kg/hr IV infusion for 4 hours, 5 min, mean of 2, baseline 260): 296 beats/minute | mean arterial pressure (MAP) (Group B, 167 μg/kg/hr IV infusion for 4 hours, 10 min, mean of 2, baseline 87): 67 mm Hg | heart rate (HR) (Group B, 167 μg/kg/hr IV infusion for 4 hours, 10 min, mean of 2, baseline 260): 296 beats/minute | mean arterial pressure (MAP) (Group B, 167 μg/kg/hr IV infusion for 4 hours, 15 min, mean of 2, baseline 87): 69 mm Hg | heart rate (HR) (Group B, 167 μg/kg/hr IV infusion for 4 hours, 15 min, mean of 2, baseline 260): 296 beats/minute | mean arterial pressure (MAP) (Group B, 167 μg/kg/hr IV infusion for 4 hours, 30 min, mean of 2, baseline 87): 68 mm Hg | heart rate (HR) (Group B, 167 μg/kg/hr IV infusion for 4 hours, 30 min, mean of 2, baseline 260): 291 beats/minute | mean arterial pressure (MAP) (Group B, 167 μg/kg/hr IV infusion for 4 hours, 60 min, mean of 2, baseline 87): 67 mm Hg | heart rate (HR) (Group B, 167 μg/kg/hr IV infusion for 4 hours, 60 min, mean of 2, baseline 260): 293 beats/minute | mean arterial pressure (MAP) (Group B, 167 μg/kg/hr IV infusion for 4 hours, 90 min, mean of 2, baseline 87): 57 mm Hg | heart rate (HR) (Group B, 167 μg/kg/hr IV infusion for 4 hours, 90 min, mean of 2, baseline 260): 282 beats/minute | mean arterial pressure (MAP) (Group B, 167 μg/kg/hr IV infusion for 4 hours, 120 min, mean of 2, baseline 87): 55 mm Hg | heart rate (HR) (Group B, 167 μg/kg/hr IV infusion for 4 hours, 120 min, mean of 2, baseline 260): 282 beats/minute | mean arterial pressure (MAP) (Group B, 167 μg/kg/hr IV infusion for 4 hours, 150 min, mean of 2, baseline 87): 52 mm Hg | heart rate (HR) (Group B, 167 μg/kg/hr IV infusion for 4 hours, 150 min, mean of 2, baseline 260): 279 beats/minute | mean arterial pressure (MAP) (Group B, 167 μg/kg/hr IV infusion for 4 hours, 180 min, mean of 2, baseline 87): 53 mm Hg | heart rate (HR) (Group B, 167 μg/kg/hr IV infusion for 4 hours, 180 min, mean of 2, baseline 260): 285 beats/minute | mean arterial pressure (MAP) (Group B, 167 μg/kg/hr IV infusion for 4 hours, 210 min, mean of 2, baseline 87): 56 mm Hg | heart rate (HR) (Group B, 167 μg/kg/hr IV infusion for 4 hours, 210 min, mean of 2, baseline 260): 284 beats/minute | mean arterial pressure (MAP) (Group B, 167 μg/kg/hr IV infusion for 4 hours, 240 min, mean of 2, baseline 87): 55 mm Hg | heart rate (HR) (Group B, 167 μg/kg/hr IV infusion for 4 hours, 240 min, mean of 2, baseline 260): 297 beats/minute | effect on heart rate [2]: slight increase in the heart rate | effect on mean arterial pressure [2]: slight decrease in mean arterial pressure | mean arterial pressure (MAP) (Group C, 16.7 μg/kg/hr IV infusion for 4 hours, 5 min, mean of 2, baseline 95): 91 mm Hg | heart rate (HR) (Group C, 16.7 μg/kg/hr IV infusion for 4 hours, 5 min, mean of 2, baseline 291): 289 beats/minute | mean arterial pressure (MAP) (Group C, 16.7 μg/kg/hr IV infusion for 4 hours, 10 min, mean of 2, baseline 95): 86 mm Hg | heart rate (HR) (Group C, 16.7 μg/kg/hr IV infusion for 4 hours, 10 min, mean of 2, baseline 291): 299 beats/minute | mean arterial pressure (MAP) (Group C, 16.7 μg/kg/hr IV infusion for 4 hours, 15 min, mean of 2, baseline 95): 84 mm Hg | heart rate (HR) (Group C, 16.7 μg/kg/hr IV infusion for 4 hours, 15 min, mean of 2, baseline 291): 302 beats/minute | mean arterial pressure (MAP) (Group C, 16.7 μg/kg/hr IV infusion for 4 hours, 30 min, mean of 2, baseline 95): 84 mm Hg | heart rate (HR) (Group C, 16.7 μg/kg/hr IV infusion for 4 hours, 30 min, mean of 2, baseline 291): 306 beats/minute | mean arterial pressure (MAP) (Group C, 16.7 μg/kg/hr IV infusion for 4 hours, 60 min, mean of 2, baseline 95): 85 mm Hg | heart rate (HR) (Group C, 16.7 μg/kg/hr IV infusion for 4 hours, 60 min, mean of 2, baseline 291): 300 beats/minute | mean arterial pressure (MAP) (Group C, 16.7 μg/kg/hr IV infusion for 4 hours, 90 min, mean of 2, baseline 95): 83 mm Hg
